The target of one assay is Beta-lactamase P99 (Enterobacter cloacae) (UniProt P05364). Briefly: Time dependent inhibition of hydrolysis of nitrocefin after 5 min pre-incubation with P99 beta-lactamases (class C).
Sequence of Beta-lactamase P99 (Enterobacter cloacae) (P05364 whole entry, looked up): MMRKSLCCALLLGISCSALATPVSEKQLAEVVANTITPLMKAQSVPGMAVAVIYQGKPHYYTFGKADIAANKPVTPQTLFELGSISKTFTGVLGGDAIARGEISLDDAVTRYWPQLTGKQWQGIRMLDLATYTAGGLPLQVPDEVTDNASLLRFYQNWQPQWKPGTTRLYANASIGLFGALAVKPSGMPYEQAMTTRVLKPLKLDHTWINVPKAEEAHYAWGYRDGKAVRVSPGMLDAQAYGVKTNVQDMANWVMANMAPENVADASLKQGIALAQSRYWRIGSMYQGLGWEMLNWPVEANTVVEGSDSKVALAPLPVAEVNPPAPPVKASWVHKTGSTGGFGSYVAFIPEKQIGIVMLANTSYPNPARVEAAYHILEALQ
Consider `CC[C@@H]1C(=O)N2C[C@@H]1C=C(OC)C2C(=O)OCc1ccc([N+](=O)[O-])cc1` (stereo partly drawn) [(1S,5R,6S)-6-Ethyl-3-methoxy-7-oxo-1-aza-bicyclo[3.2.1]oct-3-ene-2-carboxylic acid 4-nitro-benzyl ester], for which the IC50 was 210 µM.

The target is the same in the next assay. Briefly: Inhibition of hydrolysis of nitrocefin after 5 min pre-incubation with P99 beta-lactamases (class C).
The compound `COC1=C[C@@H]2CC(=O)N(C2)C1C(=O)OCc1ccc([N+](=O)[O-])cc1` (stereo partly drawn) [(1S,5S)-3-Methoxy-7-oxo-1-aza-bicyclo[3.2.1]oct-3-ene-2-carboxylic acid 4-nitro-benzyl ester] gave an IC50 of 25 µM.
In the case of `COC1=C(C(=O)OCc2ccc([N+](=O)[O-])cc2)N2C[C@@H](CC2=O)C1` [(1S,5R)-3-Methoxy-7-oxo-1-aza-bicyclo[3.2.1]oct-2-ene-2-carboxylic acid 4-nitro-benzyl ester], the midpoint of inhibition, the IC50, lay at 160 µM.
In turn, `COC1=C[C@@H]2CC(=O)N(C2)C1C(=O)O` (stereo partly drawn) [(1S,5S)-3-Methoxy-7-oxo-1-aza-bicyclo[3.2.1]oct-3-ene-2-carboxylic acid] registered an IC50 of 140 µM.
Same read-out and setting: the result for `CC[C@@H]1C(=O)N2C[C@@H]1CC(OC)=C2C(=O)O` [(1S,5R,6S)-6-Ethyl-3-methoxy-7-oxo-1-aza-bicyclo[3.2.1]oct-2-ene-2-carboxylic acid] reads 100 µM; that for `CC[C@@H]1C(=O)N2C[C@@H]1CC(OC)=C2C(=O)OCc1ccc([N+](=O)[O-])cc1` [(1S,5R,6S)-6-Ethyl-3-methoxy-7-oxo-1-aza-bicyclo[3.2.1]oct-2-ene-2-carboxylic acid 4-nitro-benzyl ester], 300 µM.

A word on the IC50: it is the midpoint of a concentration-inhibition curve. Low values mean greater potency, high ones weaker potency.

(Values after BindingDB's records for doi:10.1016/s0960-894x(04)00332-4 (Aventis Pharma, 2004).)
